The record followed here is patent publication US10072011B2, “Substituted bridged urea analogs as sirtuin modulators” (GlaxoSmithKline Intellectual Property (No.2) Limited, priority 2014, dated 2018).

In this experiment the target is T1, SIRT1 (Homo sapiens, UniProt Q96EB6).
T1 sequence (Q96EB6 1-747): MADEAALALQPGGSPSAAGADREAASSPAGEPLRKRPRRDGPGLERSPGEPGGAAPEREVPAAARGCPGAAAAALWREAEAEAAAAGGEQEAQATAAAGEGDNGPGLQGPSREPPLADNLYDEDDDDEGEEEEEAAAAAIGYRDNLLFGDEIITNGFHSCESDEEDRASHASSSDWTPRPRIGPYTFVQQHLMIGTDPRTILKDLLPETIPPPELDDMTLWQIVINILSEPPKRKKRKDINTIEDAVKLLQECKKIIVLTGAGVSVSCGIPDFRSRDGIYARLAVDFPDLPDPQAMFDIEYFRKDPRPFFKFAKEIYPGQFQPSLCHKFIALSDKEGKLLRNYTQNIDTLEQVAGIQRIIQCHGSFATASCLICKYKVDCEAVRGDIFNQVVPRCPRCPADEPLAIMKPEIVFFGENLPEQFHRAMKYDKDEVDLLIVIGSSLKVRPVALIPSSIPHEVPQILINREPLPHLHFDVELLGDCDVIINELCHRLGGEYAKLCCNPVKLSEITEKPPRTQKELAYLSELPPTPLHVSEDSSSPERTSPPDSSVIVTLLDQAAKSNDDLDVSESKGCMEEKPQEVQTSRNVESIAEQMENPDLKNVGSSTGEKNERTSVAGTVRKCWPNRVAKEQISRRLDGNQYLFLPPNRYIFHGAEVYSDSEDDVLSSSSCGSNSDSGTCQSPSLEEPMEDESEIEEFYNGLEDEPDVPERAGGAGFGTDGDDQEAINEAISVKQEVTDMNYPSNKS
The experiment in a line: Trp mass spectrometry assay of SIRT1 activation (Ac-R-H-K-K(Ac)-W-NH2 peptide). Type of experiment: biochemical. To be noted: Trp peptide 0.5 μM, 120 μM βNAD+, 10 nM SIRT1, 25 min at 25° C.; for Emax: 25 min, relative to control (100%), read-out: TRP MAX RESP (percent maximum fold activation). Summed up:
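N-terminal His-tagged human SIRT1, expressed in BL21(DE3) and purified, was incubated 25 min with an acetylated Trp peptide and NAD plus test compound at varying concentrations, then quenched with formic acid. OAADPR or deacetylated peptide was quantified by mass spectrometry versus compound-free control; EC1.5 is the concentration giving 50% activity increase, with percent maximum activation.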

Regarding `Cc1cc(C(=O)N[C@H](C)C(F)(F)F)nc2c1N1CC[C@@H](C1)N2C(=O)Nc1ccccn1` [Example 288, (4S)-9-methyl-N5-(pyridin-2-yl)-N7-((R)-1,1,1-trifluoropropan-2-yl)-3,4-dihydro-1,4-methanopyrido[2,3-b][1,4]diazepine-5,7(2H)-dicarboxamide], the Emax is more than 150% and the “TRP Activity (EC1.5, concentration of test compound that results in 150% activation of SIRT1)” value is reported as “A (EC1.5<1 μM)”.

For the compound `Cc1ccc2c(NC(=O)N3c4nc(C(=O)N[C@H](C)C(F)(F)F)cc(C)c4N4CC[C@H]3C4)n[nH]c2n1` [Example 289, (4S)-9-methyl-N5-(6-methyl-1H-pyrazolo[3,4-b]pyridin-3-yl)-N7-((R)-1,1,1-trifluoropropan-2-yl)-3,4-dihydro-1,4-methanopyrido[2,3-b][1,4]diazepine-5,7(2H)-dicarboxamide], the Emax was more than 150% and the “TRP Activity (EC1.5, concentration of test compound that results in 150% activation of SIRT1)” value is listed as “A (EC1.5<1 μM)”.

Take `Cc1cc(C(=O)N[C@H](C)C(F)(F)F)nc2c1N1CC[C@@H](C1)N2C(=O)Nc1ccc(OC[C@@H](O)CO)cn1` [Example 290, (4S)—N5-(5-((S)-2,3-dihydroxypropoxy)pyridin-2-yl)-9-methyl-N7-((R)-1,1,1-trifluoropropan-2-yl)-3,4-dihydro-1,4-methanopyrido[2,3-b][1,4]diazepine-5,7(2H)-dicarboxamide]: the Emax is more than 150% and the “TRP Activity (EC1.5, concentration of test compound that results in 150% activation of SIRT1)” value is on record as “A (EC1.5<1 μM)”.

On to `Cc1cc2c(nc1C(=O)N[C@H](C)C(F)(F)F)N(C(=O)Nc1cc(OC[C@H](O)CO)ccn1)[C@H]1CCN2C1` [Example 291, (4S)—N5-(4-((R)-2,3-dihydroxypropoxy)pyridin-2-yl)-8-methyl-N7-((R)-1,1,1-trifluoropropan-2-yl)-3,4-dihydro-1,4-methanopyrido[2,3-b][1,4]diazepine-5,7(2H)-dicarboxamide], for which the Emax is less than 150% and the “TRP Activity (EC1.5, concentration of test compound that results in 150% activation of SIRT1)” value is “A (EC1.5<1 μM)”.

For `Cc1cc(C(=O)N[C@H](C)C(F)(F)F)nc2c1N1CC[C@@H](C1)N2C(=O)Nc1cc(OC[C@H](O)CO)ccn1` [Example 292, (4S)—N5-(4-((R)-2,3-dihydroxypropoxy)pyridin-2-yl)-9-methyl-N7-((R)-1,1,1-trifluoropropan-2-yl)-3,4-dihydro-1,4-methanopyrido[2,3-b][1,4]diazepine-5,7(2H)-dicarboxamide], the Emax was less than 150% and the “TRP Activity (EC1.5, concentration of test compound that results in 150% activation of SIRT1)” value is on record as “A (EC1.5<1 μM)”.

As for `Cc1ncc(-c2ccnc(NC(=O)N3c4nc(C(=O)NCC(F)(F)F)cc(C)c4N4CC[C@H]3C4)c2)o1` [Example 293, (4S)-9-methyl-N5-(4-(2-methyloxazol-5-yl)pyridin-2-yl)-N7-(2,2,2-trifluoroethyl)-3,4-dihydro-1,4-methanopyrido[2,3-b][1,4]diazepine-5,7(2H)-dicarboxamide], the Emax was less than 150% and the “TRP Activity (EC1.5, concentration of test compound that results in 150% activation of SIRT1)” value is listed as “A (EC1.5<1 μM)”.

Regarding `Cc1cc(C(=O)NCC(F)(F)F)nc2c1N1CC[C@@H](C1)N2C(=O)Nc1cc(OC[C@H](O)CO)ccn1` [Example 294, (4S)—N5-(4-((R)-2,3-dihydroxypropoxy)pyridin-2-yl)-9-methyl-N7-(2,2,2-trifluoroethyl)-3,4-dihydro-1,4-methanopyrido[2,3-b][1,4]diazepine-5,7(2H)-dicarboxamide], the Emax is less than 150% and the “TRP Activity (EC1.5, concentration of test compound that results in 150% activation of SIRT1)” value is given as “A (EC1.5<1 μM)”.

As to `O=C(NCC(F)(F)F)c1ccc2c(n1)N(C(=O)Nc1ccccn1)[C@H]1CC[N+]2([O-])C1` [Example 295, (4S)-5-(pyridin-2-ylcarbamoyl)-7-((2,2,2-trifluoroethyl)carbamoyl)-2,3,4,5-tetrahydro-1H-1,4-methanopyrido[2,3-b][1,4]diazepine 1-oxide], the Emax is more than 150% and the “TRP Activity (EC1.5, concentration of test compound that results in 150% activation of SIRT1)” value is given as “B (EC1.5 1-25 μM)”.

Regarding `C[C@@H](NC(=O)c1ccc2c(n1)N(C(=O)Nc1cc(-c3cnn[nH]3)ccn1)[C@H]1CCN2C1)C(F)(F)F` [Example 296, (4S)—N5-(4-(1H-1,2,3-triazol-5-yl)pyridin-2-yl)-N7-((R)-1,1,1-trifluoropropan-2-yl)-3,4-dihydro-1,4-methanopyrido[2,3-b][1,4]diazepine-5,7(2H)-dicarboxamide], the Emax was less than 150% and the “TRP Activity (EC1.5, concentration of test compound that results in 150% activation of SIRT1)” value was “A (EC1.5<1 μM)”.

For the compound `CC(C)NC(=O)c1ccnc(NC(=O)N2c3nc(C(=O)N[C@H](C)C(F)(F)F)ccc3N3CC[C@H]2C3)c1` [Example 297, (4S)—N5-(4-(isopropylcarbamoyl)pyridin-2-yl)-N7-((R)-1,1,1-trifluoropropan-2-yl)-3,4-dihydro-1,4-methanopyrido[2,3-b][1,4]diazepine-5,7(2H)-dicarboxamide], the Emax was less than 150% and the “TRP Activity (EC1.5, concentration of test compound that results in 150% activation of SIRT1)” value was “A (EC1.5<1 μM)”.

With `C#Cc1ccnc(NC(=O)N2c3nc(C(=O)N[C@H](C)C(F)(F)F)ccc3N3CC[C@H]2C3)c1` [Example 299, (4S)—N5-(4-ethynylpyridin-2-yl)-N7-((R)-1,1,1-trifluoropropan-2-yl)-3,4-dihydro-1,4-methanopyrido[2,3-b][1,4]diazepine-5,7(2H)-dicarboxamide], the Emax was less than 150% and the “TRP Activity (EC1.5, concentration of test compound that results in 150% activation of SIRT1)” value is given as “A (EC1.5<1 μM)”.

As to `Cc1cnnc(NC(=O)N2c3nc(C(=O)N[C@H](C)C(F)(F)F)ccc3N3CC[C@H]2C3)c1` [Example 300, (4S)—N5-(5-methylpyridazin-3-yl)-N7-((R)-1,1,1-trifluoropropan-2-yl)-3,4-dihydro-1,4-methanopyrido[2,3-b][1,4]diazepine-5,7(2H)-dicarboxamide], the Emax is less than 150% and the “TRP Activity (EC1.5, concentration of test compound that results in 150% activation of SIRT1)” value was “A (EC1.5<1 μM)”.

Regarding `C[C@@H](NC(=O)c1ccc2c(n1)N(C(=O)Nc1cc(O)ccn1)[C@H]1CCN2C1)C(F)(F)F` [Example 301, (4S)—N5-(4-hydroxypyridin-2-yl)-N7-((R)-1,1,1-trifluoropropan-2-yl)-3,4-dihydro-1,4-methanopyrido[2,3-b][1,4]diazepine-5,7(2H)-dicarboxamide], the Emax is less than 150% and the “TRP Activity (EC1.5, concentration of test compound that results in 150% activation of SIRT1)” value is given as “A (EC1.5<1 μM)”.

On to `CCNC(=O)c1ccnc(NC(=O)N2c3nc(C(=O)N[C@H](C)C(F)(F)F)ccc3N3CC[C@H]2C3)c1` [Example 304, (4S)—N5-(4-(ethylcarbamoyl)pyridin-2-yl)-N7-((R)-1,1,1-trifluoropropan-2-yl)-3,4-dihydro-1,4-methanopyrido[2,3-b][1,4]diazepine-5,7(2H)-dicarboxamide], for which the Emax was less than 150% and the “TRP Activity (EC1.5, concentration of test compound that results in 150% activation of SIRT1)” value is on record as “A (EC1.5<1 μM)”.

Consider `C[C@@H](NC(=O)c1ccc2c(n1)N(C(=O)Nc1cc(C(=O)NC3CC3)ccn1)[C@H]1CCN2C1)C(F)(F)F` [Example 305, (4S)—N5-(4-(cyclopropylcarbamoyl)pyridin-2-yl)-N7-((R)-1,1,1-trifluoropropan-2-yl)-3,4-dihydro-1,4-methanopyrido[2,3-b][1,4]diazepine-5,7(2H)-dicarboxamide], for which the Emax is less than 150% and the “TRP Activity (EC1.5, concentration of test compound that results in 150% activation of SIRT1)” value is given as “A (EC1.5<1 μM)”.

For `C[C@@H](NC(=O)c1ccc2c(n1)N(C(=O)Nc1cc(N3CCOCC3)ccn1)[C@H]1CCN2C1)C(F)(F)F` [Example 307, (4S)—N5-(4-morpholinopyridin-2-yl)-N7-((R)-1,1,1-trifluoropropan-2-yl)-3,4-dihydro-1,4-methanopyrido[2,3-b][1,4]diazepine-5,7(2H)-dicarboxamide], the Emax is less than 150% and the “TRP Activity (EC1.5, concentration of test compound that results in 150% activation of SIRT1)” value is on record as “A (EC1.5<1 μM)”.

With `C[C@@H](NC(=O)c1ccc2c(n1)N(C(=O)Nc1cc(-c3nn[nH]n3)ccn1)[C@H]1CCN2C1)C(F)(F)F` [Example 308, (4S)—N5-(4-(2H-tetrazol-5-yl)pyridin-2-yl)-N7-((R)-1,1,1-trifluoropropan-2-yl)-3,4-dihydro-1,4-methanopyrido[2,3-b][1,4]diazepine-5,7(2H)-dicarboxamide], the Emax is less than 150% and the “TRP Activity (EC1.5, concentration of test compound that results in 150% activation of SIRT1)” value was “A (EC1.5<1 μM)”.
